This is an account of results in patent publication US20260191970A1, “CRBN LIGAND, PREPARATION METHOD THEREFOR, AND APPLICATION” (Shenzhen Zhongge Biological Technology Co., Ltd., priority 2023, published 2026).

A value given as a limit tells only on which side of the number the result lay.

Usually IC50 stands for the concentration needed to halve the response being measured. Read a low IC50 as greater potency in that assay.

T1 sequence (Q96SW2 whole entry): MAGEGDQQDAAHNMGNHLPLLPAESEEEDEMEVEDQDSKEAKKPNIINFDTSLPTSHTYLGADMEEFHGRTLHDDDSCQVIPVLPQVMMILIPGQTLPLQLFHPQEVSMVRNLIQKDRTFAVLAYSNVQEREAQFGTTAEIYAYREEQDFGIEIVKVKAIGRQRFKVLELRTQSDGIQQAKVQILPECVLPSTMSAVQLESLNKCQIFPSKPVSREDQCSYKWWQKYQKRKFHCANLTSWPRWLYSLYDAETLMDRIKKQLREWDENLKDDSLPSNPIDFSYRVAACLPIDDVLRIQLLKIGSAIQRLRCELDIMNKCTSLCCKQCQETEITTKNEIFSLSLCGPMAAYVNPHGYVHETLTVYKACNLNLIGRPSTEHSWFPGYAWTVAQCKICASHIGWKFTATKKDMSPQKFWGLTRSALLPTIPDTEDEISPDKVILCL

This assay has as its target T1, Human Cereblon WT GST-tagged protein (Homo sapiens, UniProt Q96SW2).
T1 construct: purchased CISBIO 64BDCRBNPEG
Briefly: CRBN binding assay (HTRF method). To be noted: competition with Thalidomide-Red, 25° C. 1 h. The procedure:
In this experiment, the binding interaction between compounds and CRBN was detected, and based on the IC50 values, the affinity of the compounds for the CRBN target was evaluated.
The affinity of the compounds for CRBN was detected using CEREBLON BINDING KITS (CISBIO, 64 BDCRBNPEG) containing diluent #9, Human Cereblon WT GST-tagged protein, GST Eu Cryptate Antibody, and Thalidomide-Red.
20 nL of each of the compounds was transferred to a 384-well plate (PerkinElmer, 6007299) using an Ehco650 apparatus (Beckman, 650). 5 μL of 1× diluent #9 (CISBIO, 64BDCRBNPEG) was added to the 384-well plate, and then 5 μL of 1× Human Cereblon WT GST-tagged protein (CISBIO, 64BDCRBNPEG) was added. The plate was sealed with a plate sealer, shaken on a plate shaker (Kylin-Bell, MH-2) for 10 s, centrifuged at 1000 rpm for 1 min, and incubated at 25° C. for 5 min. 5 μL of 1×GST Eu Cryptate Antibody (CISBIO, 64BDCRBNPEG) and 5 μL of 1× Thalidomide-Red (CISBIO, 64BDCRBNPEG) were added to the 384-well plate. The plate was sealed with a plate sealer, shaken for 30 s, centrifuged at 1000 rpm for 1 min, and incubated at 25° C. for 1 h. The signals at 665 nm and 620 nm were measured using Envision (PerkinElmer, 2105-0020).
The IC50 values for compound activity were calculated using Graphpad Prism9 software based on the compound concentrations and the ratio of the signals at 665 nm and 620 nm. Calculation formula: […]
(In TR-FRET formats the signal depends on donor and acceptor labels being close together.)
In turn, `CC/C(NC1CCC(=O)NC1=O)=C1/C(=O)N(C)c2ccc(N)cc21` (racemic) [Compound 6] returned an IC50 of at most 2000 nM.

For the compound `CC/C(NC1CCC(=O)NC1=O)=C1/C(=O)N(C)c2ccc(N)cc21` (single isomer, unassigned) [Compound 6-A], the IC50 is at most 2000 nM.

For `C/C(NC1CCC(=O)NC1=O)=C1/C(=O)Nc2ccc(Br)cc21` (stereo not shown) [Compound 1], the IC50 was at most 2000 nM.

On to `C/C(NC1CCC(=O)NC1=O)=C1/C(=O)N(C)c2ccc(N)cc21` (stereo not shown) [Compound 4], for which the IC50 fell in the range of 2000 to 5000 nM.
